In US20230158151A1 (NURIX THERAPEUTICS, INC., priority 2021, published 2023):

Assays:
[1] = target: T1, ITK (Homo sapiens, UniProt Q08881); experiment: ITK Degradation HiBiT Assay; assay type: cell-based; settings: C-terminal HiBiT-tagged Molt4 cells, 4 hrs incubation; for Dmax: MOLT-4, read-out: HiBiT DMax (%)
T1 construct: Compounds provided herein were assayed in vitro with ITK HiBit cell lines; endogenous in cells; host or cells: Molt4 (ATCC CRL-1552 [sic]), monoclonal clone 1C10
T1 sequence (Q08881 1-620): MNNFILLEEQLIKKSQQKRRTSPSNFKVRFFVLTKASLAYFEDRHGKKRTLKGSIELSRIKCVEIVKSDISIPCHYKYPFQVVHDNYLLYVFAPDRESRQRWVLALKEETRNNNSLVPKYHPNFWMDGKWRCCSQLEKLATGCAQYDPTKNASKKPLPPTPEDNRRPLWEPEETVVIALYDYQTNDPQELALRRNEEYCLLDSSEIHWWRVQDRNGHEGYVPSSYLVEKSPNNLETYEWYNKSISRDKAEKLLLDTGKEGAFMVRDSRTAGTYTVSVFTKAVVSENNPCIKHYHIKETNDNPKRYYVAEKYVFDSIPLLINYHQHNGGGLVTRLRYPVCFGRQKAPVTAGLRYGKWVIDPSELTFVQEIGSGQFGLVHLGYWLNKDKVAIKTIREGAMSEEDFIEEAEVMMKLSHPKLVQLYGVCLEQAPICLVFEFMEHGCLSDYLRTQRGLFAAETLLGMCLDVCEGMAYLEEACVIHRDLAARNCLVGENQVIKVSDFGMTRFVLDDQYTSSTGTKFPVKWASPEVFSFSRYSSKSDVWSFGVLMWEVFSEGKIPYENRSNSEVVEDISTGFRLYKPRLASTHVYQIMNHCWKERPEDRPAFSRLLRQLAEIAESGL

[2] = Mouse PK Analysis (plasma LC/MS/MS, noncompartmental PK parameters); assay type: in vivo; set-up: AUC(0-t): concentration or dose not given beside the values; settings: mouse; mice, oral administration, plasma
Method: Compounds 30 and 29 were administered to mice orally. After 6 hours or 24 hours, splenocytes cells were harvested. ITK was evaluated by Western blotting. Plasma concentrations were determined by LC/MS/MS. Plasma samples were protein precipitated by addition of 100 μl of acetonitrile containing 50 ng/ml of internal standard. The resulting mixture was vortexed and centrifuged at 4000 RPM for 5 minutes. An aliquot of the resultant supernatant (75 μl) was added to 75 μl of 0.1% formic acid in water to constitute the final sample for injection. Samples were injected on a Shimadzu Exion LC Binary Gradient AD Pump HLPC system connected to a Sciex QTRAP 6500+ mass spectrometer. Five μl of sample was injected onto a Waters Acquity UPLC BEH C18 column 130A (2.1×30 mm, […]) at 40° C. utilizing a flow rate of 700 μl/minute. Mobile Phase A was 0.1% formic acid in water and mobile phase B was 0.1% formic acid in acetonitrile. A linear gradient of 15-95% B over 1.0 minute was used. The mass spectrometer was operated in positive ion electrospray mode with multiple reaction monitoring for maximum sensitivity. Sciex Analyst software (version 1.6.3) was used for LC/MS/MS instrument control and acquisition. Compound concentration was determined against a standard curve of internal standard versus compound peak area ratio. Noncompartmental PK parameters were determined using Phoenix 32 software (version 8.2.0.4383) from Certara. Plasma concentrations from the LC/MS/MS analyses, dose, route of administration, and desired units were utilized for PK parameter calculations. […] FIG. 3C provides the concentration over time of compound 30 following in vivo oral administration in the 6 hour and 24 hour assays.
Cmax, Tmax and AUClast were all calculated using a WinNonLin Phoenix 64 v 8.2.0.4383. Using non-compartmental analysis, Tmax, Cmax and AUClast were determined as follows:
Tmax—Time of maximum observed concentration. Cmax—Maximum observed concentration, occurring at time Tmax, as defined above. AUClast—Area under the curve from the time of dosing to the time of the last measurable (positive) concentration (Tlast).

| Dmax [1] | AUC(0-t) [2] | Cmax [2] | Tmax [2] | DC50 [1] | Compound |
| --- | --- | --- | --- | --- | --- |
| 84% | 16.5 µM·h | 3080 nM | 2 h |  | C[C@@H](C(=O)N(C)c1ccc2cc(-c3n[nH]c4c3CCC(C)(C)C4)[nH]c2c1)N1CCN(CC2CCN(c3ccc(N4CCC(=O)NC4=O)cn3)CC2)CC1 [Compound 31, (S)—N-(2-(6,6-dimethyl-4,5,6,7-tetrahydro-1H-indazol-3-yl)-1H-indol-6-yl)-2-(4-((1-(5-(2,4-dioxotetrahydropyrimidin-1(2H)-yl)pyridin-2-yl)piperidin-4-yl)methyl)piperazin-1-yl)-N-methylpropanamide] |
| 86% | 12 µM·h | 2000 nM | 2 h | < 0.01 nM | CC1(C)CCc2c(-c3cc4ccc(C(=O)N5CCC(CN6CCN(c7ccc(C8CCC(=O)NC8=O)nc7)CC6)CC5)cc4[nH]3)n[nH]c2C1 (stereo not shown) [Compound 35, 3-(5-(4-((1-(2-(6,6-dimethyl-4,5,6,7-tetrahydro-1H-indazol-3-yl)-1H-indole-6-carbonyl)piperidin-4-yl)methyl)piperazin-1-yl)pyridin-2-yl)piperidine-2,6-dione] |
| 91% | 1.56 µM·h | 379 nM | 6 h |  | C[C@@]12Cc3[nH]nc(-c4cc5ccc(N6CCC7(CCN(CC8CCN(c9ccc(C%10CCC(=O)NC%10=O)cn9)CC8)CC7)C6=O)cc5[nH]4)c3C[C@@H]1C2(F)F (stereo partly drawn) [Compound 28, 3-(6-(4-((2-(2-((4aS,5aR)-5,5-difluoro-5a-methyl-1,4,4a,5,5a,6-hexahydrocyclopropa[f]indazol-3-yl)-1H-indol-6-yl)-1-oxo-2,8-diazaspiro[4.5]decan-8-yl)methyl)piperidin-1-yl)pyridin-3-yl)piperidine-2,6-dione] |
